Assay results reported in US20090143471A1, “Process for the Atomization of Ioxilan” (GUERBET, priority 2006, published 2009).

Assay: immediate solubility in water
Format: physicochemical
Conditions: ambient or moderate temperature (typically from 20 to 40° C.)
Protocol: Another disadvantage of the prior process by crystallization was that, in order to obtain an appropriate concentration of active principle in the contrast agent, the dissolution of the crystalline compound B1 (solid crystalline ioxilan, denoted B1; compound B of FIG. 1 is compound B1) required heating at high temperature (80° C.). This is because the immediate solubility of B1 in water at ambient or moderate temperature (typically from 20 to 40° C.) was of the order of 50 mg of iodine/ml.
The atomized compound B2 is soluble at ambient or moderate temperature. It is possible, starting from the compound B2, to obtain an appropriate pharmaceutical solution without needing to heat at high temperature. The immediate solubility of B2 in water at ambient or moderate temperature, of the order of at least 500 mg of iodine/ml and typically of approximately 500 mg of iodine/ml, makes it possible to obtain an injected contrast agent having a concentration of 350 to 450 mg of iodine/ml, for example 350, 380 or 400 mg of iodine/ml.

immediate solubility in water: ~50 mg of iodine/ml
SMILES: CC(=O)N(CC(O)CO)c1c(I)c(C(=O)NCCO)c(I)c(C(=O)NCC(O)CO)c1I (stereo not shown) [B1, 5-[N-(2,3-dihydroxypropyl)acetamido]-2,4,6-triiodo-N-(2,3-dihydroxypropyl)-N′-(2-hydroxyethyl)isophthalamide]
